Results taken from paper PMC11792831, “Design and synthesis of doublecortin-like kinase 1 inhibitors and their bioactivity evaluation” (Journal of Enzyme Inhibition and Medicinal Chemistry, 2023).
Read-outs that look alike come from different tables or passages of the source.

How the values were obtained:
DCLK1 = molecular target: T1, DCLK1 (Homo sapiens, UniProt O15075); test: In vitro DCLK1 kinase activity assay (Eurofins); assay type: biochemical; conditions: for Selectivity (IC50 of DCLK1/IC50 of LRRK2): ratio of IC50 values; for Selectivity (DCLK1 activity/LRRK2 activity): ratio of remaining activities at 1 uM; for activity at 1 µM: read-out: DCLK1 activity (%)
T1 construct: purchased Eurofins (Belgium), contract assay service
T1 sequence (O15075 1-740): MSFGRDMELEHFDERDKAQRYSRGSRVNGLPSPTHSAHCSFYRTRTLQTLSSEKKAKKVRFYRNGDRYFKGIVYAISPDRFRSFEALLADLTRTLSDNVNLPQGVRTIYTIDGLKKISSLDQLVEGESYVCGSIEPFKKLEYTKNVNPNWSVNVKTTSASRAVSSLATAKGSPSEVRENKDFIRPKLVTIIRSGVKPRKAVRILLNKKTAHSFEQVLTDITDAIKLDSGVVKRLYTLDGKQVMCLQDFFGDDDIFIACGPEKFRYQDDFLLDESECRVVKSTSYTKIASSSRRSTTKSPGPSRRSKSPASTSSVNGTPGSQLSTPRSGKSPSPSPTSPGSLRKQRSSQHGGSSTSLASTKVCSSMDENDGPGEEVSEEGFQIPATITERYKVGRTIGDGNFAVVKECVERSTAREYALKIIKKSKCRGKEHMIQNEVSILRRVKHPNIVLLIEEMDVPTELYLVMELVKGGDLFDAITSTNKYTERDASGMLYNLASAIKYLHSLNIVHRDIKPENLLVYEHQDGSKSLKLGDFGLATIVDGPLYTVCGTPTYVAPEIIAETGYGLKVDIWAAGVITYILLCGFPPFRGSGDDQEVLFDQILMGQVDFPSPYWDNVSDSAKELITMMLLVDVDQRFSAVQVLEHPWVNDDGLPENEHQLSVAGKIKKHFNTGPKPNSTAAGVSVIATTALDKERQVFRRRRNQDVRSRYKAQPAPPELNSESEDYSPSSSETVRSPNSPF
Excerpt: (§1) Eurofins (Belgium) conducted in vitro DCLK1 and LRRK2 kinase activity assays. Compounds were sent as dry powders to Eurofins.

LRRK2 = molecular target: T2, LRRK2 (Homo sapiens, UniProt Q5S007); test: In vitro LRRK2 kinase activity assay (Eurofins); assay type: biochemical; conditions: for activity at 1 µM: remaining kinase activity at 1 uM compound, 100% = no inhibition, 0% = complete inhibition
T2 construct: purchased Eurofins (Belgium), contract assay service
Method: All compounds were tested for their kinase inhibitory activity at the concentration of 1 μM. […] Compounds with high activity or good selectivity were selected for further IC50 determination (Table 2).
as §1

HCT116 = test: In vitro cytotoxicity / anti-proliferation assay (CCK8); assay type: cell-based; conditions: Homo sapiens, HCT-116, colorectal cancer cell line HCT116, 72 h
Method: To determine whether DCLK1 was required for tumour cell proliferation, the cytotoxicity of compounds was evaluated in colorectal cancer cell line HCT116. HCT116 was treated with compounds for 72 h, and the cell viability was determined using CCK8 assay (Figure 4). The antiproliferative effects of most compounds on HCT116 were correlated with their DCLK1 inhibitory activities, except for compounds D1 and D2. The poor cytotoxicity of compounds D1 and D2 may be attributed to their poor cell membrane permeability due to the negatively charged carboxylates. […] Overall, targeting DCLK1 inhibited the proliferation of HCT116, indicating the importance of DCLK1 in tumour growth.
A 96-well plate (3599, Corning, USA) was inoculated with 100 μL of complete medium containing 10 000 cells, and the experimental, control, and blank groups were established. Three parallel wells were used per concentration. After 10 h, media from the experimental and control groups were replaced with a complete medium containing the indicated concentration of the compound. Cells were incubated for 72 h before 10 μL of CCK8 reagent (CA1210, Solarbio, China) was added to each well and incubated for 1 h. The absorbance at 450 nm was measured with a microplate reader (Tecan, Switzerland). The IC50 was determined using GraphPad Prism 8 and nonlinear regression curve fitting.

[1] = remaining kinase activity at 1 uM compound, 100% = no inhibition, 0% = complete inhibition

T2 sequence (Q5S007 whole entry): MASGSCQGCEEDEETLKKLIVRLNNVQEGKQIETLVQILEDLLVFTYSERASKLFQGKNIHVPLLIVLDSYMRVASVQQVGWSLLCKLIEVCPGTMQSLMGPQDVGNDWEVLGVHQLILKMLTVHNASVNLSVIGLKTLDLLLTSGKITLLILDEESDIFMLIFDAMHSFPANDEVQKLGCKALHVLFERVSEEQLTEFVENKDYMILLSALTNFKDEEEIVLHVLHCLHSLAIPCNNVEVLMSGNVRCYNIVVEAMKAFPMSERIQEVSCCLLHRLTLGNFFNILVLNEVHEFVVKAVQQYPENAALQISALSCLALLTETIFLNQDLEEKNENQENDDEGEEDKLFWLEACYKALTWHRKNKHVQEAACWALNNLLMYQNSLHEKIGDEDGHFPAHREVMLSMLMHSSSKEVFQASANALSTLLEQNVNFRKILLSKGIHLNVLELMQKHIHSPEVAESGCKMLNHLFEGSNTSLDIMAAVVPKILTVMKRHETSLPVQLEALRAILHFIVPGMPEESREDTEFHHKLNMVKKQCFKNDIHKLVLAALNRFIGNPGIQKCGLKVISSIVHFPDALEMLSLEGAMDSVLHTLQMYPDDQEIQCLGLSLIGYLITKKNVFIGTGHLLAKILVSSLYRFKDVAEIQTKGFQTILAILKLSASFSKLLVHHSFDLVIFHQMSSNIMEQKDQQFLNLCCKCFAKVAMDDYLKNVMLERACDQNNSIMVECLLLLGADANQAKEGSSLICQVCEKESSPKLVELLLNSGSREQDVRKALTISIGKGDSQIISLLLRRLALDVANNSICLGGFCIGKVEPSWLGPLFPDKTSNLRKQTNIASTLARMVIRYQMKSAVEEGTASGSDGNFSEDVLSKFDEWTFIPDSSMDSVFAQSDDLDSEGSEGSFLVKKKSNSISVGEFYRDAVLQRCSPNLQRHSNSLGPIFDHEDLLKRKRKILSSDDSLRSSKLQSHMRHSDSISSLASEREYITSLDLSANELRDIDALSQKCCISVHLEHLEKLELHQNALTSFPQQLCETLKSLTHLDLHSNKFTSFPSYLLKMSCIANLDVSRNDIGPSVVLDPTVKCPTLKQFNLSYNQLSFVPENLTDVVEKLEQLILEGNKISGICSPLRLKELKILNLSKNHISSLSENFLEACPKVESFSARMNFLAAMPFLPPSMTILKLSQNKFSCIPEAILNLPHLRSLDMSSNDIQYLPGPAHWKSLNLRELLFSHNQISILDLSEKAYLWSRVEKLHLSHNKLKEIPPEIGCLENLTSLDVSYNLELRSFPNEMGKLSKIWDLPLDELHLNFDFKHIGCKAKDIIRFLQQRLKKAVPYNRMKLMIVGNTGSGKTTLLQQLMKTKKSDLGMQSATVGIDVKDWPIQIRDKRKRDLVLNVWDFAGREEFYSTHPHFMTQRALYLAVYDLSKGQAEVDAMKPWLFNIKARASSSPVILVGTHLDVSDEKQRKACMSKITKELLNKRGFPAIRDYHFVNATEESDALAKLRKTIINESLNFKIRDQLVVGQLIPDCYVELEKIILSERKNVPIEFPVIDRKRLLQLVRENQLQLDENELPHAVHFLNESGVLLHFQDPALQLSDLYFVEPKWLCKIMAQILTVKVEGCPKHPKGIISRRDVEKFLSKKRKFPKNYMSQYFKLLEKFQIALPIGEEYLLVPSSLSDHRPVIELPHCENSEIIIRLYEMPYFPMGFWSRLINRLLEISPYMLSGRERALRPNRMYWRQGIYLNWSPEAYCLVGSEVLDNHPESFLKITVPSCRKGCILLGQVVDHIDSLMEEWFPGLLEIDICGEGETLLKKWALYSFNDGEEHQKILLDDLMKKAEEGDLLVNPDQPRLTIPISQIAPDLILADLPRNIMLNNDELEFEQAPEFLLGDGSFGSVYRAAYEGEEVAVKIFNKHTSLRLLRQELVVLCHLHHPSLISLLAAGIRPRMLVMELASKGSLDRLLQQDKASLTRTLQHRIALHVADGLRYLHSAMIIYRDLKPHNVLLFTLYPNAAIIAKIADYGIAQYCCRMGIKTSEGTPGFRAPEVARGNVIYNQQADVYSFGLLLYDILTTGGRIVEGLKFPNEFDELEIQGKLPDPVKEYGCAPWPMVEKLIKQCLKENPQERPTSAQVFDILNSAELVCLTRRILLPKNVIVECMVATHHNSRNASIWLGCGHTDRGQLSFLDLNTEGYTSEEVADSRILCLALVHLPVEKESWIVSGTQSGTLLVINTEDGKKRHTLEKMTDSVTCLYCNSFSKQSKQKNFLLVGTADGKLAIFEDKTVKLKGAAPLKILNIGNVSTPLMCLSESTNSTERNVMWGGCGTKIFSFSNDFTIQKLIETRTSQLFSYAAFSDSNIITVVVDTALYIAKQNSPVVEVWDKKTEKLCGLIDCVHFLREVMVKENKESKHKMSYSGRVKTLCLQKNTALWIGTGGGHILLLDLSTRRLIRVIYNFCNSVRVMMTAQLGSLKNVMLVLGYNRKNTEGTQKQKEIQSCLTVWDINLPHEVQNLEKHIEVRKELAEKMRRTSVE

SMILES	Selectivity (IC50 of DCLK1/IC50 of LRRK2) (DCLK1)	Selectivity (DCLK1 activity/LRRK2 activity) (DCLK1)	IC50 (DCLK1; read-out: IC50 of DCLK1) [nM]	activity at 1 µM (DCLK1; [1]) [%]	IC50 (LRRK2) [nM]	activity at 1 µM (LRRK2) [%]	melting point [°C]	IC50 (HCT116) [nM]	IC50 (DCLK1) [nM]	activity at 1 µM (DCLK1) [%]
CCOc1cc(N2CCC(O)CC2)ccc1Nc1ncc2c(n1)N(C)c1ccc(F)cc1C(=O)N2C [Compound A6, 2-((2-Ethoxy-4-(4-hydroxypiperidin-1-yl)phenyl)amino)-8-fluoro-5,11-dimethyl-5,11-dihydro-6H-benzo[e]pyrimido[5,4-b][1,4]diazepin-6-one]	<0.37	0.37	365	19	> 1000	51	166 to 167	24700	–	–
CCOc1cc(N2CCC(O)CC2)ccc1Nc1ncc2c(n1)N(C)c1cccc(F)c1C(=O)N2C [Compound A9, 2-((2-Ethoxy-4-(4-hydroxypiperidin-1-yl)phenyl)amino)-7-fluoro-5,11-dimethyl-5,11-dihydro-6H-benzo[e]pyrimido[5,4-b][1,4]diazepin-6-one]	<0.34	0.34	338	17	> 1000	50	174 to 175	20500	–	–
CCOc1cc(N2CCC(O)CC2)ccc1Nc1ncc2c(n1)N(C)c1ccccc1C(=O)N2CC [Compound B3, 2-((2-Ethoxy-4-(4-hydroxypiperidin-1-yl)phenyl)amino)-5-ethyl-11-methyl-5,11-dihydro-6H-benzo[e]pyrimido[5,4-b][1,4]diazepin-6-one]	<0.32	0.40	324	28	> 1000	70	162 to 163	33200	–	–
CCOc1cc(N2CCC(O)CC2)ccc1Nc1ncc2c(n1)N(C)c1ccccc1C(=O)N2C [XMD8-92, reference compound]	–	–	–	–	219	18	–	16200	161	14

More lines, main results first:

Selectivity (IC50 of DCLK1/IC50 of LRRK2) (DCLK1)	Selectivity (DCLK1 activity/LRRK2 activity) (DCLK1)	IC50 (DCLK1; read-out: IC50 of DCLK1) [nM]	activity at 1 µM (DCLK1; [1]) [%]	IC50 (LRRK2) [nM]	activity at 1 µM (LRRK2) [%]	melting point [°C]	SMILES	IC50 (HCT116) [nM]	IC50 (DCLK1) [nM]	activity at 1 µM (DCLK1) [%]
<0.05	0.13	47	7	> 1000	56	187 to 188	COc1cc(NC(=O)CC(=O)O)ccc1Nc1ncc2c(n1)N(C)c1ccccc1C(=O)N2C [Compound D1, 3-((4-((5,11-Dimethyl-6-oxo-6,11-dihydro-5H-benzo[e]pyrimido[5,4-b][1,4]diazepin-2-yl)amino)-3-methoxyphenyl)amino)-3-oxopropanoic acid]	> 100000	–	–
<0.07	0.20	70	10	> 1000	49	237 to 238	COc1cc(NC(=O)CCC(=O)O)ccc1Nc1ncc2c(n1)N(C)c1ccccc1C(=O)N2C [Compound D2, 4-((4-((5,11-Dimethyl-6-oxo-6,11-dihydro-5H-benzo[e]pyrimido[5,4-b][1,4]diazepin-2-yl)amino)-3-methoxyphenyl)amino)-4-oxobutanoic acid]	> 100000	–	–
<0.34	0.59	340	20	> 1000	34	159 to 160	CCOc1cc(N2CCC(C(=O)O)CC2)ccc1Nc1ncc2c(n1)N(C)c1ccccc1C(=O)N2C [Compound D3, 1-(4-((5,11-Dimethyl-6-oxo-6,11-dihydro-5H-benzo[e]pyrimido[5,4-b][1,4]diazepin-2-yl)amino)-3-ethoxyphenyl)piperidine-4-carboxylic acid]	21500	–	–
0.64	0.55	271	18	425	33	190 to 191	CCOc1cc(N2CCSCC2)ccc1Nc1ncc2c(n1)N(C)c1ccccc1C(=O)N2C [Compound D4, 2-((2-Ethoxy-4-thiomorpholinophenyl)amino)-5,11-dimethyl-5,11-dihydro-6H-benzo[e]pyrimido[5,4-b][1,4]diazepin-6-one]	28800	–	–
0.46	0.57	146	12	320	21	163 to 164	CCOc1cc(N2CC[S+]([O-])CC2)ccc1Nc1ncc2c(n1)N(C)c1ccccc1C(=O)N2C [Compound D5, 2-((2-ethoxy-4-(1-Oxidothiomorpholino)phenyl)amino)-5,11-dimethyl-5,11-dihydro-6H-benzo[e]pyrimido[5,4-b][1,4]diazepin-6-one]	10700	–	–
0.38	0.47	74	9	195	19	157 to 158	CCOc1cc(N2CCS(=O)(=O)CC2)ccc1Nc1ncc2c(n1)N(C)c1ccccc1C(=O)N2C [Compound D6, 2-((4-(1,1-Dioxidothiomorpholino)-2-ethoxyphenyl)amino)-5,11-dimethyl-5,11-dihydro-6H-benzo[e]pyrimido[5,4-b][1,4]diazepin-6-one]	12000	–	–
0.30	0.29	46	6	154	21	126 to 127	CCOc1cc(N2CCN(C[C@@]3(O)OC[C@@H](O)[C@@H](O)[C@@H]3O)CC2)ccc1Nc1ncc2c(n1)N(C)c1ccccc1C(=O)N2C [Compound D7, 2-((2-Ethoxy-4-(4-(((2R,3S,4R,5R)-2,3,4,5-tetrahydroxytetrahydro-2H-pyran-2-yl)methyl)piperazin-1-yl)phenyl)amino)-5,11-dimethyl-5,11-dihydro-6H-benzo[e]pyrimido[5,4-b][1,4]diazepin-6-one]	10500	–	–
0.18	0.36	40	8	228	22	159 to 160	COc1cc(NC(=O)CCCCCSC(C)=O)ccc1Nc1ncc2c(n1)N(C)c1ccccc1C(=O)N2C [Compound D8, S-(6-((4-((5,11-dimethyl-6-oxo-6,11-dihydro-5H-benzo[e]pyrimido[5,4-b][1,4]diazepin-2-yl)amino)-3-methoxyphenyl)amino)-6-oxohexyl) ethanethioate]	11500	–	–
0.38	0.61	100	11	266	18	166 to 167	COc1cc(N2CCCCC2)ccc1Nc1ncc2c(n1)N(C)c1ccccc1C(=O)N2C [Compound D11, 2-((2-Methoxy-4-(piperidin-1-yl)phenyl)amino)-5,11-dimethyl-5,11-dihydro-6H-benzo[e]pyrimido[5,4-b][1,4]diazepin-6-one]	11500	–	–
